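96-well plates; 48 h exposure; 5 concentrations. Endpoints by linear interpolation between flanking doses. Not reached: highest tested concentration assigned. GI50 is the concentration that inhibits growth by half.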 The source made the active and inactive calls. Rule as the data show it: active = GI50 up to about 1.1 µM and inactive = higher.
How the values were obtained:
Test in all cases: NCI tumour cell line growth inhibition, 48 h
[1] = system: 786-0
[2] = system: A498
[3] = system: A549
[4] = system: ACHN
[5] = system: CAKI-1
[6] = system: CCRF-CEM
[7] = system: DLD-1
[8] = system: EKVX
[9] = system: HCC 2998
[10] = system: HCT-116
[11] = system: HCT-15
[12] = system: HL-60
[13] = system: HOP-62
[14] = system: HOP-92
[15] = system: HT-29
[16] = system: IGROV-1
[17] = system: K562
[18] = system: KM-20L2
[19] = system: KM12
[20] = system: LXFL 529
[21] = system: M14
[22] = system: M19-MEL
[23] = system: MOLT-4
[24] = system: Malme-3M
[25] = system: NCI-H23
[26] = system: NCI-H460
[27] = system: NCI-H522
[28] = system: OVCAR-3
[29] = system: OVCAR-4
[30] = system: OVCAR-5
[31] = system: OVCAR-8
[32] = system: RXF 393
[33] = system: RXF 631
[34] = system: SF-268
[35] = system: SF-295
[36] = system: SF-539
[37] = system: SK-MEL-28
[38] = system: SK-MEL-2
[39] = system: SK-MEL-5
[40] = system: SK-OV-3
[41] = system: SN12C
[42] = system: SNB-19
[43] = system: SNB-75
[44] = system: SNB-78
[45] = system: SR
[46] = system: SW-620
[47] = system: TK-10
[48] = system: U-251
[49] = system: UACC-62
[50] = system: UO-31
[51] = system: XF498
[52] = system: COLO 205
[53] = system: DMS-114
[54] = system: DMS-273
[55] = system: LOX IMVI
[56] = system: NCI-H226
[57] = system: RPMI-8226

In the case of NCCSc1cc(O)c2c(c1N)C(=O)c1ccccc1C2=O, the GI50 [1] is reported as 29.9 µM (inactive), the GI50 [2] is reported as 91.2 µM (inactive) and the GI50 [3] is reported as > 100 µM (inactive). The GI50 [4] was 43.8 µM (inactive), the GI50 [5] was > 100 µM (inactive) and the GI50 [6] was 16.8 µM (inactive). The GI50 [7] was 30.3 µM (inactive), the GI50 [8] was > 100 µM (inactive) and the GI50 [9] was > 100 µM (inactive). For the same compound, the GI50 [10] was 34 µM (inactive), the GI50 [11] was 29.3 µM and the GI50 [12] was 20.8 µM (inactive). The GI50 [13] was > 100 µM (inactive), the GI50 [14] was 60.5 µM (inactive) and the GI50 [15] was 34.1 µM (inactive). For the same compound, the GI50 [16] was 18.8 µM (inactive), the GI50 [17] was 22.2 µM (inactive) and the GI50 [18] was 5.51 µM (inactive). For the same compound, the GI50 [19] was 51.2 µM (inactive), the GI50 [20] was 38.2 µM (inactive) and the GI50 [21] was 74.3 µM (inactive). For the same compound, the GI50 [22] was 24.3 µM (inactive), the GI50 [23] was 20.9 µM (inactive) and the GI50 [24] was 26 µM (inactive). The GI50 [25] was > 100 µM (inactive), the GI50 [26] was 36 µM (inactive) and the GI50 [27] was 19.6 µM (inactive). The GI50 [28] was 43 µM (inactive), the GI50 [29] was 99.3 µM (inactive) and the GI50 [30] was > 100 µM (inactive). The GI50 [31] was 27.9 µM (inactive), the GI50 [32] was 27.7 µM (inactive) and the GI50 [33] was 25.2 µM (inactive). The GI50 [34] was 55.8 µM (inactive), the GI50 [35] was 46 µM (inactive) and the GI50 [36] was 92.5 µM (inactive). For the same compound, the GI50 [37] was > 100 µM (inactive), the GI50 [38] was 65.6 µM (inactive) and the GI50 [39] was 12.9 µM (inactive). For the same compound, the GI50 [40] was > 100 µM (inactive), the GI50 [41] was 47.1 µM (inactive) and the GI50 [42] was 34 µM (inactive). For the same compound, the GI50 [43] was 67.6 µM (inactive), the GI50 [44] was 32.1 µM (inactive) and the GI50 [45] was 20.8 µM (inactive). The GI50 [46] was 33.1 µM (inactive), the GI50 [47] was > 100 µM (inactive) and the GI50 [48] was 58.7 µM (inactive). The GI50 [49] was 36.7 µM (inactive), the GI50 [50] was > 100 µM (inactive) and the GI50 [51] was 21.8 µM (inactive).
In the case of Cn1cc(C(=O)C2CCCCC2)ccc1=O, the GI50 [1] is reported as > 100 µM (inactive), the GI50 [3] is reported as > 100 µM (inactive) and the GI50 [4] is reported as > 100 µM (inactive). The GI50 [5] was > 100 µM (inactive), the GI50 [6] was > 100 µM (inactive) and the GI50 [52] was > 100 µM (inactive). The GI50 [7] was > 100 µM (inactive), the GI50 [53] was > 100 µM (inactive) and the GI50 [54] was > 100 µM (inactive). The GI50 [8] was > 100 µM (inactive), the GI50 [9] was > 100 µM (inactive) and the GI50 [10] was > 100 µM (inactive). The GI50 [11] was over 100 µM, the GI50 [12] was > 100 µM (inactive) and the GI50 [13] was > 100 µM (inactive). For the same compound, the GI50 [14] was > 100 µM (inactive), the GI50 [15] was > 100 µM (inactive) and the GI50 [16] was > 100 µM (inactive). For the same compound, the GI50 [17] was > 100 µM (inactive), the GI50 [18] was > 100 µM (inactive) and the GI50 [19] was > 100 µM (inactive). The GI50 [55] was > 100 µM (inactive), the GI50 [21] was > 100 µM (inactive) and the GI50 [23] was > 100 µM (inactive). The GI50 [24] was > 100 µM (inactive), the GI50 [56] was > 100 µM (inactive) and the GI50 [25] was > 100 µM (inactive). For the same compound, the GI50 [26] was > 100 µM (inactive), the GI50 [27] was > 100 µM (inactive) and the GI50 [28] was > 100 µM (inactive). The GI50 [29] was > 100 µM (inactive), the GI50 [30] was > 100 µM (inactive) and the GI50 [31] was > 100 µM (inactive). For the same compound, the GI50 [57] was > 100 µM (inactive), the GI50 [32] was > 100 µM (inactive) and the GI50 [33] was > 100 µM (inactive). For the same compound, the GI50 [34] was > 100 µM (inactive), the GI50 [35] was > 100 µM (inactive) and the GI50 [36] was > 100 µM (inactive). The GI50 [37] was > 100 µM (inactive), the GI50 [38] was > 100 µM (inactive) and the GI50 [39] was > 100 µM (inactive). The GI50 [40] was > 100 µM (inactive), the GI50 [41] was > 100 µM (inactive) and the GI50 [42] was > 100 µM (inactive). The GI50 [43] was > 100 µM (inactive), the GI50 [44] was > 100 µM (inactive) and the GI50 [45] was > 100 µM (inactive). The GI50 [46] was > 100 µM (inactive), the GI50 [47] was > 100 µM (inactive) and the GI50 [48] was > 100 µM (inactive). For the same compound, the GI50 [49] was > 100 µM (inactive), the GI50 [50] was > 100 µM (inactive) and the GI50 [51] was > 100 µM (inactive).
